Patent US4386077A (Made Italiana s.r.l, priority 1981, dated 1983)

Columns and labels:
[1] = format: in vivo, rat; settings: rats, oral (gastric gavage), 50 mg CDP-choline, 24 hours
Protocol: The labelled carbon atom is that of the methyl group of the choline moiety.
At different time intervals a certain amount of blood is collected and, after 24 hours from the beginning of the experiment, the animals are sacrificed. The amount of radioactivity is measured in predetermined serum volumes or weight of the various organs or tissues.
The values are expressed as c.p.m.x 10^-3 /gram of organ or tissue.

[2] = Cumulative urinary elimination in Cynomolgus monkeys; format: in vivo, Cynomolgus monkey
Protocol: (§1) Blood was collected at the following time: 0 (basal values) and 5, 10, 15, 30, 60 minutes, 2, 4, 7, 24 and 30 hours after the administration. From the end of the curves serum concentration/time, it was possible to calculate the constant of the apparent elimination speed from the organism as well as the relative half-life. These values were utilized in calculating the AUC T30 hours →T.infin. for the total of the curves concentration/time in the same animal. The AUC To →T30 hrs was calculated by means of the trapezium methods. […] For each dosage, a randomized cross-over procedure was used. Seriated blood samples were collected until 30 hours after each administration. From the single curves concentration/time it was possible to calculate the AUC To →T30 hrs. After each administration, including the intravenous one, urine was collected at the following time intervals: 0-24 hours, 24-48 hours and 48-72 hours.

[3] = Serum kinetics and absolute bioavailability of ^14 C-labelled CDP-choline and "ASONIC" after i.v. and oral administration in Cynomolgus monkeys; format: in vivo, Cynomolgus monkey; settings: average and S.D. of 2 monkeys
Protocol: as §1, with “From” for “Blood was collected at the following time: 0 (basal values) and 5, 10, 15, 30, 60 minutes, 2, 4, 7, 24 and 30 hours after the administration. From”

With C[N+](C)(C)CCOP(=O)(O)OP(=O)([O-])OC[C@H]1O[C@@H](n2ccc(N)nc2=O)[C@H](O)[C@@H]1O [CDP-choline, cytidine diphosphocholine] the “Radioactivity value in brain” value [1] was 1.55 c.p.m.x 10^-3 /gram of organ o, the “Radioactivity value in kidney” value [1] was 46.3 c.p.m.x 10^-3 /gram of organ o and the “Radioactivity value in liver” value [1] was 65.4 c.p.m.x 10^-3 /gram of organ o. For the same compound, the “Radioactivity value in muscle” value [1] was 3.1 c.p.m.x 10^-3 /gram of organ o, the Cumulative urinary elimination ([2]; average and S.D. of 2 monkeys, 25 mg/kg i.v., 0-24 hr) was 50.65 ± 2.33 % OF THE ADMINISTERED DOSE and the Cumulative urinary elimination ([2]; average and S.D. of 2 monkeys, 25 mg/kg i.v., 0-72 hr) was 53.5 ± 3.25 % OF THE ADMINISTERED DOSE. The Cumulative urinary elimination ([2]; average and S.D. of 2 monkeys, 25 mg/kg i.v., 24-48 hr) was 2.5 ± 0.99 % OF THE ADMINISTERED DOSE, the Cumulative urinary elimination ([2]; average and S.D. of 2 monkeys, 25 mg/kg i.v., 48-72 hr) was 0.35 ± 0.07 % OF THE ADMINISTERED DOSE and the Cumulative urinary elimination ([2]; average and S.D. of 2 monkeys, 200 mg/kg per os, 0-24 hr) was 42.75 ± 6.15 % OF THE ADMINISTERED DOSE. For the same compound, the Cumulative urinary elimination ([2]; average and S.D. of 2 monkeys, 200 mg/kg per os, 0-72 hr) was 47.5 ± 3.11 % OF THE ADMINISTERED DOSE, the Cumulative urinary elimination ([2]; average and S.D. of 2 monkeys, 200 mg/kg per os, 24-48 hr) was 4.2 ± 2.83 % OF THE ADMINISTERED DOSE and the Cumulative urinary elimination ([2]; average and S.D. of 2 monkeys, 200 mg/kg per os, 48-72 hr) was 0.55 ± 0.21 % OF THE ADMINISTERED DOSE. The Cumulative urinary elimination ([2]; average and S.D. of 2 monkeys, 400 mg/kg per os, 0-24 hr) was 31.3 ± 9.3 % OF THE ADMINISTERED DOSE, the Cumulative urinary elimination ([2]; average and S.D. of 2 monkeys, 400 mg/kg per os, 0-72 hr) was 37.65 ± 8.98 % OF THE ADMINISTERED DOSE and the Cumulative urinary elimination ([2]; average and S.D. of 2 monkeys, 400 mg/kg per os, 24-48 hr) was 5.6 ± 0.56 % OF THE ADMINISTERED DOSE. For the same compound, the Cumulative urinary elimination ([2]; average and S.D. of 2 monkeys, 400 mg/kg per os, 48-72 hr) was 0.75 ± 0.21 % OF THE ADMINISTERED DOSE, the Cumulative urinary elimination ([2]; monkey no. 1, 25 mg/kg i.v., 0-24 hr) was 49 % OF THE ADMINISTERED DOSE and the Cumulative urinary elimination ([2]; monkey no. 1, 25 mg/kg i.v., 0-72 hr) was 51.2 % OF THE ADMINISTERED DOSE. The Cumulative urinary elimination ([2]; monkey no. 1, 25 mg/kg i.v., 24-48 hr) was 1.8 % OF THE ADMINISTERED DOSE, the Cumulative urinary elimination ([2]; monkey no. 1, 25 mg/kg i.v., 48-72 hr) was 0.4 % OF THE ADMINISTERED DOSE and the Cumulative urinary elimination ([2]; monkey no. 1, 200 mg/kg per os, 0-24 hr) was 38.4 % OF THE ADMINISTERED DOSE. The Cumulative urinary elimination ([2]; monkey no. 1, 200 mg/kg per os, 0-72 hr) was 45.3 % OF THE ADMINISTERED DOSE, the Cumulative urinary elimination ([2]; monkey no. 1, 200 mg/kg per os, 24-48 hr) was 6.2 % OF THE ADMINISTERED DOSE and the Cumulative urinary elimination ([2]; monkey no. 1, 200 mg/kg per os, 48-72 hr) was 0.7 % OF THE ADMINISTERED DOSE. The Cumulative urinary elimination ([2]; monkey no. 1, 400 mg/kg per os, 0-24 hr) was 24.7 % OF THE ADMINISTERED DOSE, the Cumulative urinary elimination ([2]; monkey no. 1, 400 mg/kg per os, 0-72 hr) was 31.3 % OF THE ADMINISTERED DOSE and the Cumulative urinary elimination ([2]; monkey no. 1, 400 mg/kg per os, 24-48 hr) was 6.0 % OF THE ADMINISTERED DOSE. For the same compound, the Cumulative urinary elimination ([2]; monkey no. 1, 400 mg/kg per os, 48-72 hr) was 0.6 % OF THE ADMINISTERED DOSE, the Cumulative urinary elimination ([2]; monkey no. 2, 25 mg/kg i.v., 0-24 hr) was 52.3 % OF THE ADMINISTERED DOSE and the Cumulative urinary elimination ([2]; monkey no. 2, 25 mg/kg i.v., 0-72 hr) was 55.8 % OF THE ADMINISTERED DOSE. The Cumulative urinary elimination ([2]; monkey no. 2, 25 mg/kg i.v., 24-48 hr) was 3.2 % OF THE ADMINISTERED DOSE, the Cumulative urinary elimination ([2]; monkey no. 2, 25 mg/kg i.v., 48-72 hr) was 0.3 % OF THE ADMINISTERED DOSE and the Cumulative urinary elimination ([2]; monkey no. 2, 200 mg/kg per os, 0-24 hr) was 47.1 % OF THE ADMINISTERED DOSE. The Cumulative urinary elimination ([2]; monkey no. 2, 200 mg/kg per os, 0-72 hr) was 49.7 % OF THE ADMINISTERED DOSE, the Cumulative urinary elimination ([2]; monkey no. 2, 200 mg/kg per os, 24-48 hr) was 2.2 % OF THE ADMINISTERED DOSE and the Cumulative urinary elimination ([2]; monkey no. 2, 200 mg/kg per os, 48-72 hr) was 0.4 % OF THE ADMINISTERED DOSE. For the same compound, the Cumulative urinary elimination ([2]; monkey no. 2, 400 mg/kg per os, 0-24 hr) was 37.9 % OF THE ADMINISTERED DOSE, the Cumulative urinary elimination ([2]; monkey no. 2, 400 mg/kg per os, 0-72 hr) was 44.0 % OF THE ADMINISTERED DOSE and the Cumulative urinary elimination ([2]; monkey no. 2, 400 mg/kg per os, 24-48 hr) was 5.2 % OF THE ADMINISTERED DOSE. For the same compound, the Cumulative urinary elimination ([2]; monkey no. 2, 400 mg/kg per os, 48-72 hr) was 0.9 % OF THE ADMINISTERED DOSE, the Plasmatic concentration ([3]; 25 mg/kg i.v., 5') was 10561 ± 2620 DPM/ml serum and the Plasmatic concentration ([3]; 25 mg/kg i.v., 15') was 4088 ± 1299 DPM/ml serum. It also gave a Plasmatic concentration ([3]; 25 mg/kg i.v., 30') of 2846 ± 877 DPM/ml serum, a Plasmatic concentration ([3]; 25 mg/kg i.v., 60') of 2127 ± 704 DPM/ml serum and a Plasmatic concentration ([3]; 25 mg/kg i.v., 2 hr) of 2397 ± 329 DPM/ml serum. It also gave a Plasmatic concentration ([3]; 25 mg/kg i.v., 4 hr) of 3064 ± 431 DPM/ml serum, a Plasmatic concentration ([3]; 25 mg/kg i.v., 7 hr) of 3566 ± 631 DPM/ml serum and a Plasmatic concentration ([3]; 25 mg/kg i.v., 24 hr) of 2035 ± 315 DPM/ml serum. For the same compound, the Plasmatic concentration ([3]; 25 mg/kg i.v., 30 hr) was 1947 ± 280 DPM/ml serum, the Plasmatic concentration ([3]; 200 mg/kg per os, 15') was 61 DPM/ml serum and the Plasmatic concentration ([3]; 200 mg/kg per os, 30') was 45 DPM/ml serum. It also gave a Plasmatic concentration ([3]; 200 mg/kg per os, 45') of 56 ± 4 DPM/ml serum, a Plasmatic concentration ([3]; 200 mg/kg per os, 60') of 91 ± 4.2 DPM/ml serum and a Plasmatic concentration ([3]; 200 mg/kg per os, 4 hr) of 154 ± 26 DPM/ml serum. For the same compound, the Plasmatic concentration ([3]; 200 mg/kg per os, 7 hr) was 774 ± 110 DPM/ml serum, the Plasmatic concentration ([3]; 200 mg/kg per os, 9 hr) was 669 ± 105 DPM/ml serum and the Plasmatic concentration ([3]; 200 mg/kg per os, 24 hr) was 378 ± 55 DPM/ml serum. For the same compound, the Plasmatic concentration ([3]; 200 mg/kg per os, 30 hr) was 344 ± 58 DPM/ml serum, the Plasmatic concentration ([3]; 400 mg/kg per os, 30') was 35 DPM/ml serum and the Plasmatic concentration ([3]; 400 mg/kg per os, 60') was 61 ± 12 DPM/ml serum. For the same compound, the Plasmatic concentration ([3]; 400 mg/kg per os, 90') was 40 ± 16 DPM/ml serum, the Plasmatic concentration ([3]; 400 mg/kg per os, 2 hr) was 78 ± 4.2 DPM/ml serum and the Plasmatic concentration ([3]; 400 mg/kg per os, 3 hr) was 181 ± 9.2 DPM/ml serum. The Plasmatic concentration ([3]; 400 mg/kg per os, 4 hr) was 448 ± 66 DPM/ml serum.
